Assay results published in patent US4061637A, “Certain 4-aryl-5-(4-phenylpiperazino)alkyl-4-thiazolin-2-ones” (priority 1974, dated 1977).
Where a name gives a salt, the structure may show the parent alone. Read-outs that look alike come from different tables or passages of the source.

Tests used:
[1] = Inhibition of spontaneous motility in the mouse; type: in vivo; settings: for ED50: po, 0.5 h, read-out: Spontaneous motility inhibition mouse ED50
Experimental: This is evaluated by an actophotometric method, which consists of placing the mice, 30 minutes after oral treatment with the drug or the carrier, in a cage provided with a photoelectric cell counter and counting the number of times the photoelectric cell is passed during a 10 minute stay.

[2] = Cataleptic activity in the mouse; type: in vivo; settings: for ED50: po, read-out: Cataleptic activity mouse ED50
[3] = Pinching the tail of the mouse (systemic analgesic activity); type: in vivo; settings: po, 0.5 h; for inhibition in vivo at 200 mg/kg: 200 mg/kg os; for inhibition in vivo at 100 mg/kg: 100 mg/kg os
Experimental: To evaluate the analgesic activity, the method described by Bianchi and colleagues (Brit. J. Pharmacol., 9, 280, 1954) was followed which consists of applying an arterial pincer to the base of the tail in animals treated orally 30 minutes previously with the drug under examination, observing that the control animals react to the pain by squealing.

[4] = Carrageen oedema in the conscious rat (anti-inflammatory activity); type: in vivo; settings: for ED30: 1 h, ip, one hour before carrageen, read-out: Anti-inflammatory activity carrageenin oedema rat ED30
Experimental: Anti-inflammatory activity was evaluated by the method of Winter and colleagues (Proc. Soc. Exp. Biol., 111, 544, 1962) by endoperitoneally injecting the product under examination one hour before inducing oedema by injecting 0.05 ml. of a 1% suspension of carrageen (intradermally into the plantar portion of a rear paw).
The difference between the volume of the paw determined plethysmographically one hour before and three hours after the carrageen gives a quantitative estimate of the activity of the product tested. Where possible, the ED30 was calculated.

nor-adrenalin = assay: Antagonism towards a lethal dose of nor-adrenalin in the rat (α-adrenolytic activity); type: in vivo; settings: for ED50: po, 1 h, read-out: α-adrenolytic activity lethal NA rat ED50
Experimental: Antagonism towards a lethal dose of nor-adrenalin in the rat
The animals are treated with a dose of nor-adrenalin (0.5 mg/kg) which is 100% lethal in animals. The activity is calculated by the number of animals protected from death by prior administration of the drug under examination one hour before the agonist. Where possible the ED50 was calculated.

[5] = Antagonism towards electric shock convulsions in the mouse; type: in vivo; settings: po, 0.5 h, read-out: Anti-convulsion activity, electric shock, mouse, % att.; for inhibition in vivo at 200 mg/kg: 200 mg/kg os; for inhibition in vivo at 100 mg/kg: 100 mg/kg os
Experimental: This is evaluated by observing the protection given by pretreatment with the drug (30 minutes) against tonic convulsions obtained by applying a 35 volt current to the eyeballs.

[6] = Ulcers by constriction (stress) in the rat; type: in vivo; settings: 4 h; for responders at 30 mg/kg / responders at 10 mg/kg: read-out: Anti-ulcer activity, ulcers by stress in the rat, Protected rats %; for inhibition in vivo at 30 mg/kg / inhibition in vivo at 10 mg/kg: read-out: Anti-ulcer activity, ulcers by stress in the rat, Reduction in ulcers %; for responders at 10 mg/kg / inhibition in vivo at 10 mg/kg: 10 mg/kg ip
Experimental: The method described by Rossi and colleagues (Compt. Rend. Soc. Biol., 150, 2124, 1956) was followed in which the formation of gastric ulcers is induced by immobilising the animal, in a state of fast for 48 hours, in a net for a period of 4 hours.
The protection given by treatment with the drug under examination before the beginning of the constriction period is evaluated by counting both the ulcers and the number of subjects without ulcers.

[7] = Acute toxicity under LD50 mouse; settings: in vivo, ip
[8] = mouse, os, 30 minutes after treatment
[9] = rat, os, one hour before nor-adrenalin 0.5 mg/kg

O=c1[nH]c(-c2ccc(F)cc2)c(CCN2CCN(c3ccccc3)CC2)s1 [LR 599, 4-p-fluorophenyl-5-β-(N'-phenylpiperazino)ethyl-4-thiazolin-2-one]
ED50 [1, 8]: 69.2 mg/kg
ED50 ([2]; mouse, os): 200 mg/kg
inhibition in vivo at 200 mg/kg ([3]; mouse, 30 minutes): 30%
Anti-inflammatory activity carrageenin oedema rat, percentage activity (ED30 lacking) ([4]; 200 mg/kg ip): 20%
ED50 (nor-adrenalin; Rattus norvegicus): 45 mg/kg
inhibition in vivo at 200 mg/kg ([5]; mouse, 35 volt): 0%
responders at 30 mg/kg ([6]; rat, 30 mg/kg ip): 20%
inhibition in vivo at 30 mg/kg ([6]; rat, 30 mg/kg ip): 48%
LD50 [7]: > 1000 mg/kg

O=c1[nH]c(-c2ccc(F)cc2)c(CCN2CCC(O)(c3ccc(Cl)cc3)CC2)s1 [LR 613, 4-p-fluorophenyl-5-β-[(4'-hydroxy-4'-p-chlorophenyl)-piperidino]-ethyl-4-thiazolin-2-one hydrochloride]
ED50 ([1]; Mus musculus): 18 mg/kg
ED50 ([2]; Mus musculus): 32.4 mg/kg
inhibition in vivo at 60 mg/kg ([3]; Mus musculus, read-out: Systemic analgesic activity, tail pinching in mouse, %): 10%
Anti-inflammatory activity carrageenin oedema rat, percentage activity (ED30 lacking) ([4]; 60 mg/kg ip): 15.2%
α-adrenolytic activity lethal NA rat, percentage activity (ED50 lacking) (nor-adrenalin; rat, 15 mg/kg os): 20%
inhibition in vivo at 60 mg/kg ([5]; Mus musculus): 10%
responders at 30 mg/kg ([6]; Rattus norvegicus, ip): 60%
inhibition in vivo at 30 mg/kg ([6]; Rattus norvegicus, ip): 80%
LD50 [7]: 300 mg/kg

CN(CCc1ccccc1)CCc1sc(=O)[nH]c1-c1ccc(F)cc1.O=C(O)/C=C\C(=O)O [LR 616, 4-p-fluorophenyl-5-β-(N-methylphenylethylamino)ethyl-4-thiazolin-2-one maleate]
ED50 [1, 8]: 40 mg/kg
Cataleptic activity mouse, percentage activity (ED50 lacking) ([2]; mouse, 40 mg/kg os): 0%
inhibition in vivo at 40 mg/kg ([3]; mouse, 40 mg/kg os, 30 minutes): 0%
ED30 [4]: 54 mg/kg
ED50 (nor-adrenalin; [9]): 5.5 mg/kg
inhibition in vivo at 40 mg/kg ([5]; mouse, 40 mg/kg os, 35 volt): 0%
responders at 30 mg/kg ([6]; rat, 30 mg/kg ip): 10%
inhibition in vivo at 30 mg/kg ([6]; rat, 30 mg/kg ip): 0%
LD50 [7]: 225 mg/kg

CN(CCc1ccccc1)CCc1sc(=O)[nH]c1-c1ccc(Cl)cc1.O=C(O)/C=C\C(=O)O [LR 628, 4-p-chlorophenyl-5-β-(N-methylphenylethylamino)ethyl-4-thiazolin-2-one maleate]
ED50 [1, 8]: 100 mg/kg
inhibition in vivo at 100 mg/kg ([3]; mouse, 30 minutes): 0%
ED30 [4]: 35 mg/kg
ED50 (nor-adrenalin; [9]): 8 mg/kg
inhibition in vivo at 100 mg/kg ([5]; mouse, 35 volt): 0%
responders at 30 mg/kg ([6]; rat, 30 mg/kg ip): 0%
inhibition in vivo at 30 mg/kg ([6]; rat, 30 mg/kg ip): 0%
LD50 [7]: 400 mg/kg

CN(CCc1ccccc1)CCc1sc(=O)[nH]c1-c1ccccc1.O=C(O)/C=C\C(=O)O [LR 630, 4-phenyl-5-β-(N-methylphenylethylamino)ethyl-4-thiazolin-2-one maleate]
ED50 [1, 8]: 60 mg/kg
ED50 ([2]; mouse, os): 180 mg/kg
inhibition in vivo at 180 mg/kg ([3]; mouse, 180 mg/kg os, 30 minutes): 0%
ED30 [4]: 145 mg/kg
ED50 (nor-adrenalin; [9]): 16 mg/kg
inhibition in vivo at 180 mg/kg ([5]; mouse, 180 mg/kg os, 35 volt): 10%
responders at 30 mg/kg ([6]; rat, 30 mg/kg ip): 10%
inhibition in vivo at 30 mg/kg ([6]; rat, 30 mg/kg ip): 0%
LD50 [7]: 750 mg/kg

O=c1[nH]c(-c2ccccc2)c(CCN2CCN(c3ccccc3)CC2)s1 [LR 637, 4-phenyl-5-β-(N'-phenylpiperazino)ethyl-4-thiazolin-2-one]
ED50 [1, 8]: 200 mg/kg
ED50 ([2]; mouse, os): 200 mg/kg
inhibition in vivo at 200 mg/kg ([3]; mouse, 30 minutes): 30%
Anti-inflammatory activity carrageenin oedema rat, percentage activity (ED30 lacking) ([4]; 200 mg/kg ip): 11.6%
ED50 (nor-adrenalin; Rattus norvegicus): 18 mg/kg
inhibition in vivo at 200 mg/kg ([5]; mouse, 35 volt): 20%
responders at 10 mg/kg ([6]; rat): 57%
inhibition in vivo at 10 mg/kg ([6]; rat): 86%
LD50 [7]: 1000 mg/kg

O=c1[nH]c(-c2ccc(Cl)cc2)c(CCN2CCN(c3ccccc3)CC2)s1 [LR 638, 4-p-chlorophenyl-5-β-(N'-phenylpiperazino)ethyl-4-thiazolin-2-one]
ED50 [1, 8]: 200 mg/kg
ED50 ([2]; mouse, os): 200 mg/kg
inhibition in vivo at 200 mg/kg ([3]; mouse, 30 minutes): 10%
Anti-inflammatory activity carrageenin oedema rat, percentage activity (ED30 lacking) ([4]; 200 mg/kg ip): 14%
α-adrenolytic activity lethal NA rat, percentage activity (ED50 lacking) (nor-adrenalin; rat, 50 mg/kg os): 0%
inhibition in vivo at 200 mg/kg ([5]; mouse, 35 volt): 10%
responders at 10 mg/kg ([6]; rat): 60%
inhibition in vivo at 10 mg/kg ([6]; rat): 63%
LD50 [7]: > 1000 mg/kg

COc1ccc(-c2[nH]c(=O)sc2CCN2CCN(c3ccccc3)CC2)cc1 [LR 639, 4-p-methoxyphenyl-5-β-(N'-phenylpiperazino)ethyl-4-thiazolin-2-one]
ED50 [1, 8]: 33 mg/kg
ED50 ([2]; mouse, os): 88 mg/kg
inhibition in vivo at 200 mg/kg ([3]; mouse, 30 minutes): 0%
Anti-inflammatory activity carrageenin oedema rat, percentage activity (ED30 lacking) ([4]; 200 mg/kg ip): 8.1%
ED50 (nor-adrenalin; Rattus norvegicus): 45 mg/kg
inhibition in vivo at 200 mg/kg ([5]; mouse, 35 volt): 0%
responders at 10 mg/kg ([6]; rat): 30%
inhibition in vivo at 10 mg/kg ([6]; rat): 28%
LD50 [7]: > 1000 mg/kg

O=c1[nH]c(-c2ccc(F)cc2)c(CCN2CCC3(CC2)OCCCCO3)s1 [LR 648, 4-p-fluorophenyl-5-β-[7,12-dioxa-3-azaspiro[5,6]-dodec-3-yl]-ethyl-4-thiazolin-2-one hydrochloride]
Spontaneous motility inhibition mouse, percentage activity (ED50 lacking) ([1]; mouse, 26 mg/kg os): 20%
inhibition in vivo at 26 mg/kg ([3]; mouse, 26 mg/kg os, 30 minutes): 0%
α-adrenolytic activity lethal NA rat, percentage activity (ED50 lacking) (nor-adrenalin; rat, 7 mg/kg os): 0%
inhibition in vivo at 26 mg/kg ([5]; mouse, 26 mg/kg os, 35 volt): 20%
responders at 10 mg/kg ([6]; rat): 10%
inhibition in vivo at 10 mg/kg ([6]; rat): 32%
LD50 [7]: 125 mg/kg

Cn1c(-c2ccc(F)cc2)c(CCN2CCN(c3ccccc3)CC2)sc1=O [LR 652, 3-methyl-4-p-fluorophenyl-5-β-(N'-phenylpiperazino)-ethyl-4-thiazolin-2-one]
ED50 [1, 8]: 23 mg/kg
ED50 ([2]; mouse, os): 52.4 mg/kg
inhibition in vivo at 200 mg/kg ([3]; mouse, 30 minutes): 0%
ED30 [4]: 163 mg/kg
ED50 (nor-adrenalin; Rattus norvegicus): 13.3 mg/kg
inhibition in vivo at 200 mg/kg ([5]; mouse, 35 volt): 40%
responders at 30 mg/kg ([6]; rat, 30 mg/kg ip): 50%
inhibition in vivo at 30 mg/kg ([6]; rat, 30 mg/kg ip): 68%
LD50 [7]: > 1000 mg/kg

CC(=O)n1c(-c2ccc(F)cc2)c(CCN2CCN(c3ccccc3)CC2)sc1=O [LR 653, 3-acetyl-4-p-fluorophenyl-5-β-(N'-phenylpiperazino)-ethyl-4-thiazolin-2-one]
ED50 [1, 8]: 11.6 mg/kg
ED50 ([2]; mouse, os): 80 mg/kg
inhibition in vivo at 100 mg/kg ([3]; mouse, 30 minutes): 20%
Anti-inflammatory activity carrageenin oedema rat, percentage activity (ED30 lacking) ([4]; 100 mg/kg ip): 25.4%
ED50 (nor-adrenalin; Rattus norvegicus): 12.8 mg/kg
inhibition in vivo at 100 mg/kg ([5]; mouse, 35 volt): 20%
LD50 [7]: 420 mg/kg

O=c1[nH]c(-c2ccc(Cl)cc2)c(CN2CCCCC2)s1 [LR 659, 4-p-chlorophenyl-5-piperidinomethyl-4-thiazolin-2-one]
inhibition in vivo at 200 mg/kg ([3]; mouse, 30 minutes): 0%
inhibition in vivo at 200 mg/kg ([5]; mouse, 35 volt): 30%
responders at 10 mg/kg ([6]; rat): 50%
inhibition in vivo at 10 mg/kg ([6]; rat): 50%
LD50 [7]: > 1000 mg/kg

O=c1[nH]c(-c2ccc(Cl)cc2)c(CN2CCN(c3ccccc3)CC2)s1 [LR 660, 4-p-chlorophenyl-5-(N'-phenylpiperazino)methyl-4-thiazolin-2-one]
ED50 [1, 8]: 100 mg/kg
inhibition in vivo at 200 mg/kg ([5]; mouse, 35 volt): 20%
responders at 10 mg/kg ([6]; rat): 50%
inhibition in vivo at 10 mg/kg ([6]; rat): 50%
LD50 [7]: > 1000 mg/kg
